Results on four compounds are retold here after US9708314B2, “Heterocyclic amide compound” (NISSAN CHEMICAL INDUSTRIES, LTD., priority 2013, dated 2017).

The structures appear in SMILES notation.

Assay type in all cases: in vivo
Data set [1] deals with directly sowed Oryza sativa. Briefly: Test Example 3: effect on crop by application to foliage (Wagner pot, water depth 0.1-0.5 cm). Particulars: Nineteenth Table; application to foliage; application herbicide amount 320 g/ha. Summed up: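 Greenhouse pot test, 25–30 °C, alluvial soil. Sown seedlings grown 14 days then sprayed on leaves and stems with emulsion diluted to target g/ha. Rating at 3 weeks, 0–5 scale (0 ≤5%, 5 ≥90%).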

The test system of another data set is Veronica persica. Kind of data set: Test Example 4: herbicidal effect by application to foliage (diluvial soil, plastic box). As to conditions: for R (Veronica persica) herbicidal effect grade: foliage application. Summed up: (§1)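 Greenhouse plants (25° C. to 30° C., 14 d, diluvial soil) receive a foliar spray of water-diluted emulsifiable formulation at defined g/ha. Grading after 3 weeks uses a six-step herbicidal-ratio scale, with 4 covering 70% to <90% and 1 covering 5% to <20%.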

For another data set, the system named is Digitaria ciliaris. The description is as above. Particulars: for F (Digitaria ciliaris) herbicidal effect grade: foliage application. Summed up: as §1
Another data set concerns Amaranthus retroflexus. The data set is described as above. As to conditions: for N (Amaranthus retroflexus) herbicidal effect grade: foliage application. Summed up:
as §1

A further data set relates to Galium spurium. The data set is described as above. As to conditions: for Q (Galium spurium) herbicidal effect grade: foliage application. Summed up: as §1
The test system of a further data set is Avena fatua. The description is as above. As to conditions: for I (Avena fatua) herbicidal effect grade: foliage application. Summed up: as §1
A further data set has as its system Alopecurus myosuroides. The description is as above. Particulars: for J (Alopecurus myosuroides) herbicidal effect grade: foliage application. Summed up: as §1
The test system of a further data set is Apera spica-venti. The description is as above. Particulars: for L (Apera spica-venti.) herbicidal effect grade: foliage application. Summed up:
as §1

A further data set relates to Stellaria media. The data set is described as above. Particulars: for P (Stellaria media) herbicidal effect grade: foliage application. Summed up: as §1
In data set [2] the test system is Echinochloa crus-galli var. crus-galli. Described as above. Particulars: for H (Echinochloa crus-galli var. crus-galli) herbicidal effect grade: foliage application. Summed up: as §1
The subject of the next data set is Chenopodium album. The data set is described as above. Particulars: for O (Chenopodium album) herbicidal effect grade: foliage application. Summed up:
as §1

A further data set relates to Setaria viridis. The data set is described as above. Particulars: for G (Setaria viridis) herbicidal effect grade: foliage application. Summed up:
as §1

The subject of a further data set is Lolium multiflorum Lam. Described as above. Particulars: for K (Lolium multiflorum Lam.) herbicidal effect grade: foliage application. Summed up: as §1
The next data set deals with Abutilon theophrasti. The data set is described as above. As to conditions: for M (Abutilon theophrasti) herbicidal effect grade: foliage application. Summed up:
as §1

Setting [3] is: Application herbicide amount 320 g/ha.
The mark [4] stands for this setting: application to foliage, application herbicide amount 320 g/ha.

Regarding `COc1ccc(CSc2nnc3c(C(=O)Nc4nnc(C)o4)ccc(C(F)(F)F)n23)cc1` [1-114], the “b (effect on crop grade)” value in [1] was 0 (Herbicidal ratio of 5% or less (almost no effect)). Further, the “R (Veronica persica) herbicidal effect grade” value in the data set with Veronica persica (setting [3]) is 3 (Herbicidal ratio of 40% or more and less than 70%). In addition, the “F (Digitaria ciliaris) herbicidal effect grade” value with Digitaria ciliaris (setting [3]) is 1 (Herbicidal ratio of 5% or more and less than 20%). Also, in the data set with Amaranthus retroflexus (setting [3]), the “N (Amaranthus retroflexus) herbicidal effect grade” value is 3 (Herbicidal ratio of 40% or more and less than 70%). Moreover, in the data set on Galium spurium (setting [3]), the “Q (Galium spurium) herbicidal effect grade” value was 1 (Herbicidal ratio of 5% or more and less than 20%). In the data set with Avena fatua (setting [3]), the “I (Avena fatua) herbicidal effect grade” value is 0 (Herbicidal ratio of 5% or less (almost no effect)). The “J (Alopecurus myosuroides) herbicidal effect grade” value in the data set on Alopecurus myosuroides (setting [3]) is 0 (Herbicidal ratio of 5% or less (almost no effect)). Besides, the “L (Apera spica-venti.) herbicidal effect grade” value with Apera spica-venti. (setting [3]) is given as 0 (Herbicidal ratio of 5% or less (almost no effect)). For the same compound, the “P (Stellaria media) herbicidal effect grade” value in the data set on Stellaria media (setting [3]) was 4 (Herbicidal ratio of 70% or more and less than 90%). Moreover, the “H (Echinochloa crus-galli var. crus-galli) herbicidal effect grade” value in data set [2] (setting [3]) is 3 (Herbicidal ratio of 40% or more and less than 70%). Moreover, the “O (Chenopodium album) herbicidal effect grade” value in the data set with Chenopodium album (setting [3]) is recorded as 5 (Herbicidal ratio of 90% or more (almost completely withered)). Moreover, in the data set on Setaria viridis (setting [3]), the “G (Setaria viridis) herbicidal effect grade” value is on record as 0 (Herbicidal ratio of 5% or less (almost no effect)). Also, in the data set with Lolium multiflorum Lam. (setting [3]), the “K (Lolium multiflorum Lam.) herbicidal effect grade” value is listed as 0 (Herbicidal ratio of 5% or less (almost no effect)). The “M (Abutilon theophrasti) herbicidal effect grade” value in the data set on Abutilon theophrasti (setting [3]) is 2 (Herbicidal ratio of 20% or more and less than 40%).

Consider `CCOCc1nnc2c(C(=O)Nc3nnnn3C)ccc(C(F)(F)F)n12` [2-026], for which the “b (effect on crop grade)” value in [1] is given as 5 (Herbicidal ratio of 90% or more (almost completely withered)). In the data set with Veronica persica (setting [4]), the “R: herbicidal effect on Veronica persica” value is recorded as 5 (Herbicidal ratio of 90% or more (almost completely withered)). The “F: herbicidal effect on Digitaria ciliaris” value in the data set on Digitaria ciliaris (setting [4]) is 5 (Herbicidal ratio of 90% or more (almost completely withered)). Further, the “N: herbicidal effect on Amaranthus retroflexus” value in the data set on Amaranthus retroflexus (setting [4]) was 5 (Herbicidal ratio of 90% or more (almost completely withered)). For the same compound, the “Q: herbicidal effect on Galium spurium” value in the data set on Galium spurium (setting [4]) was 4 (Herbicidal ratio of 70% or more and less than 90%). In the data set on Avena fatua (setting [4]), the “I: herbicidal effect on Avena fatua” value is 3 (Herbicidal ratio of 40% or more and less than 70%). The “J: herbicidal effect on Alopecurus myosuroides” value in the data set on Alopecurus myosuroides (setting [4]) is 4 (Herbicidal ratio of 70% or more and less than 90%). In addition, in the data set with Apera spica-venti. (setting [4]), the “L: herbicidal effect on Apera spica-venti.” value is 3 (Herbicidal ratio of 40% or more and less than 70%). Also, the “P: herbicidal effect on Stellaria media” value with Stellaria media (setting [4]) is 5 (Herbicidal ratio of 90% or more (almost completely withered)). Moreover, the “H: herbicidal effect on Echinochloa crus-galli var. crus-galli” value in data set [2] (setting [4]) is recorded as 5 (Herbicidal ratio of 90% or more (almost completely withered)). In the data set with Chenopodium album (setting [4]), the “O: herbicidal effect on Chenopodium album” value is on record as 5 (Herbicidal ratio of 90% or more (almost completely withered)). Besides, the “G: herbicidal effect on Setaria viridis” value in the data set on Setaria viridis (setting [4]) was 4 (Herbicidal ratio of 70% or more and less than 90%). In addition, the “K: herbicidal effect on Lolium multiflorum Lam.” value in the data set with Lolium multiflorum Lam. (setting [4]) is 3 (Herbicidal ratio of 40% or more and less than 70%). The “M: herbicidal effect on Abutilon theophrasti” value in the data set on Abutilon theophrasti (setting [4]) is given as 5 (Herbicidal ratio of 90% or more (almost completely withered)).

Turning to `CC[S+]([O-])c1nnc2c(C(=O)Nc3nnnn3C)ccc(C(F)(F)F)n12` (centres unmarked) [2-031], the “b (effect on crop grade)” value in [1] was 5 (Herbicidal ratio of 90% or more (almost completely withered)). Besides, in the data set with Veronica persica (320 g/ha), the “R (Veronica persica) herbicidal effect grade” value is given as 5 (Herbicidal ratio of 90% or more (almost completely withered)). Moreover, the “F (Digitaria ciliaris) herbicidal effect grade” value in the data set on Digitaria ciliaris (320 g/ha) is 5 (Herbicidal ratio of 90% or more (almost completely withered)). Besides, the “N (Amaranthus retroflexus) herbicidal effect grade” value with Amaranthus retroflexus (320 g/ha) is reported as 5 (Herbicidal ratio of 90% or more (almost completely withered)). Also, in the data set on Galium spurium (320 g/ha), the “Q (Galium spurium) herbicidal effect grade” value is on record as 5 (Herbicidal ratio of 90% or more (almost completely withered)). In the data set on Avena fatua (320 g/ha), the “I (Avena fatua) herbicidal effect grade” value was 5 (Herbicidal ratio of 90% or more (almost completely withered)). Further, in the data set with Alopecurus myosuroides (320 g/ha), the “J (Alopecurus myosuroides) herbicidal effect grade” value was 4 (Herbicidal ratio of 70% or more and less than 90%). Besides, the “L (Apera spica-venti.) herbicidal effect grade” value with Apera spica-venti. (320 g/ha) is 5 (Herbicidal ratio of 90% or more (almost completely withered)). Besides, in the data set with Stellaria media (320 g/ha), the “P (Stellaria media) herbicidal effect grade” value is reported as 5 (Herbicidal ratio of 90% or more (almost completely withered)). Further, the “H (Echinochloa crus-galli var. crus-galli) herbicidal effect grade” value in data set [2] (320 g/ha) is on record as 5 (Herbicidal ratio of 90% or more (almost completely withered)). In the data set on Chenopodium album (320 g/ha), the “O (Chenopodium album) herbicidal effect grade” value is listed as 5 (Herbicidal ratio of 90% or more (almost completely withered)). For the same compound, the “G (Setaria viridis) herbicidal effect grade” value with Setaria viridis (320 g/ha) was 5 (Herbicidal ratio of 90% or more (almost completely withered)). For the same compound, the “K (Lolium multiflorum Lam.) herbicidal effect grade” value with Lolium multiflorum Lam. (320 g/ha) was 5 (Herbicidal ratio of 90% or more (almost completely withered)). For the same compound, the “M (Abutilon theophrasti) herbicidal effect grade” value in the data set on Abutilon theophrasti (320 g/ha) is 5 (Herbicidal ratio of 90% or more (almost completely withered)).

Take `Cc1nnc(NC(=O)c2ccc(C(F)(F)F)n3c(NCC(F)(F)F)nnc23)o1` [1-131]: the “b (effect on crop grade)” value in data set [1] was 2 (Herbicidal ratio of 20% or more and less than 40%). Further, the “R (Veronica persica) herbicidal effect grade” value in the data set on Veronica persica (setting [3]) is 3 (Herbicidal ratio of 40% or more and less than 70%). The “F (Digitaria ciliaris) herbicidal effect grade” value in the data set with Digitaria ciliaris (setting [3]) was 4 (Herbicidal ratio of 70% or more and less than 90%). Also, the “N (Amaranthus retroflexus) herbicidal effect grade” value in the data set with Amaranthus retroflexus (setting [3]) was 3 (Herbicidal ratio of 40% or more and less than 70%). In addition, the “Q (Galium spurium) herbicidal effect grade” value with Galium spurium (setting [3]) is on record as 0 (Herbicidal ratio of 5% or less (almost no effect)). Besides, the “I (Avena fatua) herbicidal effect grade” value with Avena fatua (setting [3]) is 0 (Herbicidal ratio of 5% or less (almost no effect)). The “J (Alopecurus myosuroides) herbicidal effect grade” value in the data set with Alopecurus myosuroides (setting [3]) is given as 0 (Herbicidal ratio of 5% or less (almost no effect)). The “L (Apera spica-venti.) herbicidal effect grade” value in the data set with Apera spica-venti. (setting [3]) was 0 (Herbicidal ratio of 5% or less (almost no effect)). Also, the “P (Stellaria media) herbicidal effect grade” value in the data set on Stellaria media (setting [3]) is 3 (Herbicidal ratio of 40% or more and less than 70%). For the same compound, the “H (Echinochloa crus-galli var. crus-galli) herbicidal effect grade” value in data set [2] (setting [3]) was 4 (Herbicidal ratio of 70% or more and less than 90%). In the data set with Chenopodium album (setting [3]), the “O (Chenopodium album) herbicidal effect grade” value is listed as 5 (Herbicidal ratio of 90% or more (almost completely withered)). Moreover, the “G (Setaria viridis) herbicidal effect grade” value with Setaria viridis (setting [3]) was 3 (Herbicidal ratio of 40% or more and less than 70%). In addition, the “K (Lolium multiflorum Lam.) herbicidal effect grade” value in the data set with Lolium multiflorum Lam. (setting [3]) was 0 (Herbicidal ratio of 5% or less (almost no effect)). Moreover, the “M (Abutilon theophrasti) herbicidal effect grade” value in the data set on Abutilon theophrasti (setting [3]) is 3 (Herbicidal ratio of 40% or more and less than 70%).
